Laboratory results taken from BindingDB's records for doi:10.1016/s0960-894x(99)00298-x (Agrevo, 1999).

Experiment: Inhibition of Pisum sativum (pea) adenylate deaminase

Structure (SMILES): O=P(O)(O)OC[C@H]1O[C@@H](c2n[nH]c3cncnc23)[C@H](O)[C@@H]1O
- IC50: 100 nM
